Experimental data from patent publication US20080132539A1, “Hydroxamic Acid Derivative And Age Generation Inhibitor Containing The Derivative” (priority 2003, published 2008).

Tested on: Maillard reaction (lysozyme / fructose, dimer formation)
Test: Maillard reaction-inhibiting effects (lysozyme dimer formation with fructose, SDS-PAGE densitometry)
Type: biochemical
Conditions: 10 mg/mL lysozyme, 200 mM fructose, pH 7.4, 37° C., 4 days, dimer formation inhibition rate
Experimental: This Example examined Maillard reaction-inhibiting effects using, as test compounds, the compounds produced in the above-described Examples and the commercially available substances arginine hydroxamate (Compound No. 111), tyrosine hydroxamate (Compound No. 112), and tryptophan hydroxamate (Compound No. 113). More specifically, 10 mg/mL lysozyme, 200 mM fructose, and each of the above-described test compounds dissolved in a 0.4 mM sodium phosphate buffer (pH 7.4) so as to provide a concentrations of 0.1, 0.3, 1, or 3 mM were incubated at 37° C. for 4 days. After the incubation, the samples were subjected to SDS-PAGE, stained with Coomassie Brilliant Blue R-250, and quantitated for the formed dimmers using a densitometer. The Maillard reaction-inhibiting activity was defined as the dimmer formation inhibition rate of a test compound calculated on the basis that the amount of dimmer is 100% in the absence of the test compound, using, as blank, the amount of dimer in the absence of fructose and the test compound.

[1] = test compound concentration 0.1 mM
[2] = test compound concentration 0.3 mM
[3] = test compound concentration 1 mM
[4] = test compound concentration 3 mM

Structure (SMILES)	Maillard reaction-inhibiting activity (%) [1] [%]	Maillard reaction-inhibiting activity (%) [2] [%]	Maillard reaction-inhibiting activity (%) [3] [%]	Maillard reaction-inhibiting activity (%) [4] [%]
CC(C)(C)c1ccc(Cn2cc(CC(N)C(=O)NO)c3ccccc32)cc1 (racemic) [Compound No. 106, (RS)-2-amino-3-[1-(4-t-butylbenzyl)-1H-indol-3-yl]-N-hydroxypropionamide]	94	95	97	95
NC(Cc1cn(Cc2ccc(F)c(F)c2)c2ccccc12)C(=O)NO (racemic) [Compound No. 108, (RS)-2-amino-3-[1-(3,4-difluorobenzyl)-1H-indol-3-yl]-N-hydroxypropionamide]	102	103	104	104
CC(C)(C)c1ccc(NC(=O)CC[C@H](N)C(=O)NO)cc1 [Compound No. 2, (S)-2-amino-4-(4-t-butylphenylaminocarbonyl)-N-hydroxybutyramide]	86	100	100	100
N[C@@H](CCC(=O)NC1CCCCC1)C(=O)NO [Compound No. 5, (S)-2-amino-4-(cyclohexylaminocarbonyl)-N-hydroxybutyramide]	−3	5	35	97
N[C@@H](CCC(=O)NCC(c1ccccc1)c1ccccc1)C(=O)NO [Compound No. 6, (S)-2-amino-4-(2,2-diphenylethylaminocarbonyl)-N-hydroxybutyramide]	49	97	103	100
N[C@@H](CCC(=O)NCc1ccccn1)C(=O)NO [Compound No. 7, (S)-2-amino-4-(pyridin-2-ylmethylaminocarbonyl)-N-hydroxybutyramide]	−3	−4	13	72
N[C@@H](CCCNC(=O)c1ccc([N+](=O)[O-])cc1)C(=O)NO [Compound No. 15, (S)-2-amino-5-(4-nitrobenzoylamino)pentanoic acid hydroxyamide]	−12	−2	43	98
N[C@@H](CCCNC(=O)Cc1ccc([N+](=O)[O-])cc1)C(=O)NO [Compound No. 16, (S)-2-amino-5-(4-nitrophenylacetylamino)pentanoic acid hydroxyamide]	−7	11	71	98
N[C@@H](CCCNC(=O)CC1CCCCC1)C(=O)NO [Compound No. 19, (S)-2-amino-5-(cyclohexylacetylamino)pentanoic acid hydroxyamide]	10	54	95	101
CCCN(CCC)CCC[C@H](N)C(=O)NO [Compound No. 25, (S)-2-amino-5-dipropylaminopentanoic acid hydroxyamide]	7	6	40	100
CCCCCN(CCCCC)CCC[C@H](N)C(=O)NO [Compound No. 26, (S)-2-amino-5-dipentylaminopentanoic acid hydroxyamide]	11	17	68	100
N[C@@H](CCCNC1CCCCC1)C(=O)NO [Compound No. 27, (S)-2-amino-5-cyclohexylaminopentanoic acid hydroxyamide]	1	7	32	100
Cc1ccc(CN(CCC[C@H](N)C(=O)NO)Cc2ccc(C)cc2)cc1 [Compound No. 28, (S)-2-amino-5-[bis-(4-methyl-benzyl)amino]pentanoic acid hydroxyamide]	100	100	100	100
Cc1ccc(C(=O)Nc2ccc(C[C@H](N)C(=O)NO)cc2)cc1 [Compound No. 30, (S)-2-amino-3-[4-(4-methylbenzoyl)amino-phenyl]-N-hydroxypropionamide]	56	74	80	92
CCCCC(=O)Nc1ccc(C[C@H](N)C(=O)NO)cc1 [Compound No. 31, (S)-2-amino-3-(4-valeroylaminophenyl)-N-hydroxypropionamide]	29	72	100	100
CC(C)(C)C(=O)Nc1ccc(C[C@H](N)C(=O)NO)cc1 [Compound No. 32, (S)-2-amino-3-(4-pivaloylaminophenyl)-N-hydroxypropionamide]	23	50	89	102
N[C@@H](Cc1ccc(NC(=O)Cc2ccc(F)cc2)cc1)C(=O)NO [Compound No. 33, (S)-2-amino-3-{4-[2-(4-fluorophenyl)acetylamino]-phenyl}-N-hydroxypropionamide]	57	93	98	102
Cc1ccc(S(=O)(=O)Nc2ccc(C[C@H](N)C(=O)NO)cc2)cc1 [Compound No. 34, (S)-2-amino-3-[4-(toluen-4-ylsulfonylamino)phenyl]-N-hydroxypropionamide]	37	98	102	102
COC(=O)Nc1ccc(C[C@H](N)C(=O)NO)cc1 [Compound No. 36, (S)-2-amino-3-(4-methoxycarbonylaminophenyl)-N-hydroxypropionamide]	15	33	69	102
CN(C)NC(=O)c1ccc(C[C@H](N)C(=O)NO)cc1 [Compound No. 37, (S)-2-amino-3-(4-dimethylaminocarbamoyl-phenyl)-N-hydroxypropionamide]	1	16	35	94
CCCN(CCC)c1ccc(C[C@H](N)C(=O)NO)cc1 [Compound No. 38, (S)-2-amino-3-(4-dipropylamino-1-phenyl)-N-hydroxypropionamide]	100	100	100	100
N[C@@H](Cc1ccc([N+](=O)[O-])cc1)C(=O)NO [Compound No. 40, (S)-2-amino-3-(4-nitrophenyl)-N-hydroxypropionamide]	37	49	96	100
CC(C)(C)Cn1c(CC[C@H](N)C(=O)NO)nc2ccccc21 [Compound No. 71, (S)-2-amino-N-hydroxy-4-[1-(2,2-dimethylpropyl)-1H-benzimidazol-2-yl]butyramide]	71	97	98	99
CC(C)Cn1c(CC[C@H](N)C(=O)NO)nc2ccccc21 [Compound No. 72, (S)-2-amino-N-hydroxy-4-(1-isobutyl-1H-benzimidazol-2-yl)butyramide]	53	94	100	101
N[C@@H](CCc1nc2ccccc2n1Cc1ccc(F)cc1)C(=O)NO [Compound No. 73, (S)-2-amino-N-hydroxy-4-[1-(4-fluorobenzyl)-1H-benzimidazol-2-yl]butyramide]	94	98	98	100
